Measurements reported in patent US9187471B2, “Pyrido [4,3-b] indole and pyrido [3,4-b] indole derivatives and methods of use” (Medivation Technologies, Inc., priority 2010, dated 2015).

Tests used:
[1] = biological target: T1, rat adrenergic α1A receptor (Rattus norvegicus, UniProt P43140); test: Adrenergic α1A radioligand binding ([3H]Prazosin); settings: read-out: Adrenergic (0.1 μM) a1A, percent inhibition of specific binding; compound at 0.1 μM; 0.25 nM [3H]Prazosin
T1 construct: rat adrenergic α1A receptor obtained from Wistar Rat submaxillary glands; from tissue; host or cells: Wistar rat submaxillary glands
T1 sequence (P43140 1-466): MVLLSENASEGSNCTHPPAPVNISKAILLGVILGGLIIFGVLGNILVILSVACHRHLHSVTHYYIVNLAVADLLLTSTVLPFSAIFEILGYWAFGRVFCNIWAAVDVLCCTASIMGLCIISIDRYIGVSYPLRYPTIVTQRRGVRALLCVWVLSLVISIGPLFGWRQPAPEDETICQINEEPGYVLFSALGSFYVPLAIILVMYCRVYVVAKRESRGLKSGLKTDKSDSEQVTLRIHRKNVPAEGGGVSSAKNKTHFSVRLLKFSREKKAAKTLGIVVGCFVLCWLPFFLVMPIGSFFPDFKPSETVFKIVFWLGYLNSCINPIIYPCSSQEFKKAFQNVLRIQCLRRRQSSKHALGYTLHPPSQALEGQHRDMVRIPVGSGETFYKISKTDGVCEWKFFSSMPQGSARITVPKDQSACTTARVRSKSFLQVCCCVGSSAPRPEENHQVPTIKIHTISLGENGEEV
Protocol: To evaluate in radioligand binding assays the activity of compounds of the invention, rat adrenergic α1A receptor obtained from Wistar Rat submaxillary glands (Michel, A. et al, Br. J. Pharmacol. 98:883, 1989) in a modified Tris-HCl buffer (50 mM Tris-HCl buffer, pH 7.4, 0.5 mM EDTA) was used. Compounds of the invention were incubated with 0.25 nM [^3H]Prazosin for 60 min at 25° C. Non-specific binding was estimated in the presence of 10 μM phentolamine Receptor proteins were filtered and washed, the filters were then counted to determine [^3H]Prazosin specifically bound. […] Compounds of the invention were tested in this biochemical assay and percent inhibition of specific binding was determined.

[2] = biological target: T2, human recombinant dopamine D2L receptor (Homo sapiens, UniProt P14416); test: Dopamine D2L radioligand binding ([3H]Spiperone); settings: 0.16 nM [3H]Spiperone; for inhibition at 1 µM: read-out: Dopamine D2L (1 μM), percent inhibition of specific binding, compound at 1 μM; for inhibition at 0.1 µM: read-out: Dopamine D2L (0.1 μM), percent inhibition of specific binding, compound at 0.1 μM
T2 construct: expressed in transfected cells; host or cells: CHO
Protocol: Non-specific binding was estimated in the presence of 10 μM Haloperidol. Receptor proteins were filtered and washed, the filters were then counted to determine [^3H]Spiperone specifically bound.

[3] = biological target: T3, human recombinant serotonin (5-Hydroxytryptamine) 5-HT2A receptor (Homo sapiens, UniProt P28223); test: Serotonin 5-HT2A radioligand binding ([3H]Ketanserin); settings: compound at 0.1 μM; read-out: Inhibition of ligand binding, Serotonin 5-HT2A (percent inhibition of specific binding)
T3 construct: expressed in transfected cells; host or cells: CHO-K1
Protocol: Compounds of the invention were incubated with 0.5 nM [^3H]Ketanserin for 60 min at 25° C. Non-specific binding was estimated in the presence of 1 μM Mianserin. Receptor proteins were filtered and washed, the filters were then counted to determine [^3H]Ketanserin specifically bound.

T2 sequence (P14416 whole entry): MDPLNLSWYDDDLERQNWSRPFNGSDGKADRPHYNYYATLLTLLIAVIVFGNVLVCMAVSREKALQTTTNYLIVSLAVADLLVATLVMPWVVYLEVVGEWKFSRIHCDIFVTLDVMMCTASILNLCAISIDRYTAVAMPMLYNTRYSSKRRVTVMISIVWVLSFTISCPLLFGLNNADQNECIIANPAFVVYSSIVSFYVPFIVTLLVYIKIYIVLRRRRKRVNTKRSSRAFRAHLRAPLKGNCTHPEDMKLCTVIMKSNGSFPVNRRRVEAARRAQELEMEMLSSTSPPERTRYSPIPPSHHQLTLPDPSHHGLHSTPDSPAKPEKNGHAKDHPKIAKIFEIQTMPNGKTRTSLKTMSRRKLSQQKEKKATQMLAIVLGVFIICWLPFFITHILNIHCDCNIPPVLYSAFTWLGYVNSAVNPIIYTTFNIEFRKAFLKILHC
T3 sequence (P28223 whole entry): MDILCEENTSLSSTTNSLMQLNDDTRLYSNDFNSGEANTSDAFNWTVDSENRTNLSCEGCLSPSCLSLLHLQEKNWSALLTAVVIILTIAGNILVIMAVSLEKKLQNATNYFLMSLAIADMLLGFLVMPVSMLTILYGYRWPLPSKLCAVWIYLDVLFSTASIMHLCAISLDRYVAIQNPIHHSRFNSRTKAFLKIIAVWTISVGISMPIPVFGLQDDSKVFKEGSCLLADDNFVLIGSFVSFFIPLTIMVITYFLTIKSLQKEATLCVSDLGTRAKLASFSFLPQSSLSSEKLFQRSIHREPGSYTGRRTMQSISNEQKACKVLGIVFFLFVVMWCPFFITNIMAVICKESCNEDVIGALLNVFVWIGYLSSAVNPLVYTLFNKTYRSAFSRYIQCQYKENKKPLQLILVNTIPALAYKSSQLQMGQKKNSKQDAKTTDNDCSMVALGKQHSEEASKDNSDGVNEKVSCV

| Compound | inhibition at 0.1 µM [1] [%] | inhibition at 1 µM [2] [%] | inhibition at 0.1 µM [3] [%] | inhibition at 0.1 µM [2] [%] |
| --- | --- | --- | --- | --- |
| CC(=O)Nc1ccc(-c2cscc2-n2c3c(c4cc(C)ccc42)CN(C)CC3)cn1 [Compound 56] | 49 | 10 | 31 |  |
| Cc1ccc2c(c1)c1c(n2-c2cscc2-c2cc3ccccc3s2)CCN(C)C1 [Compound No. 151] | 64 |  | 32 | 1 |
| Cc1ccc2c(c1)c1c(n2-c2cccc(-c3ccc(S(C)(=O)=O)cc3)c2)CCN(C)C1 [Compound No. 131, 2,8-dimethyl-5-(4′-(methylsulfonyl)biphenyl-3-yl)-2,3,4,5-tetrahydro-1H-pyrido[4,3-b]indole] | 0 | 4 | 74 |  |
| Cc1ccc2c(c1)c1c(n2-c2ccc(-c3cnc(N(C)C)nc3)cn2)CCN(C)C1 [Compound No. 138, 5-(6-(2,8-dimethyl-3,4-dihydro-1H-pyrido[4,3-b]indol-5(2H)-yl)pyridin-3-yl)-N,N-dimethylpyrimidin-2-amine] | 32 | -2 | 83 |  |
| Cc1csc(-c2cccc(-n3c4c(c5cc(C)ccc53)CN(C)CC4)c2)c1 [Compound No. 63, 2,8-dimethyl-5-(3-(4-methylthiophen-2-yl)phenyl)-2,3,4,5-tetrahydro-1H-pyrido[4,3-b]indole] | -8 | 19 | 101 |  |
| Cc1ccc2c(c1)c1c(n2-c2ccc(-c3cnn(C)c3)cn2)CCN(C)C1 [Compound No. 134, 2,8-dimethyl-5-(5-(1-methyl-1H-pyrazol-4-yl)pyridin-2-yl)-2,3,4,5-tetrahydro-1H-pyrido[4,3-b]indole] | -2 | 1 | 88 |  |
| Cc1ccc2c(c1)c1c(n2-c2cscc2-c2cncc3ccccc23)CCN(C)C1 [Compound 34] | 4 | 31 | 57 |  |
| Cc1ccc2c(c1)c1c(n2-c2ccccc2-c2ccc(C)nc2)CCN(C)C1 [Compound 59, 2,8-dimethyl-5-(2-(6-methylpyridin-3-yl)phenyl)-2,3,4,5-tetrahydro-1H-pyrido[4,3-b]indole] | 42 | 13 | 47 |  |
| Cc1ccc2c(c1)c1c(n2-c2cccc(-c3ccc(C)nc3)c2)CCN(C)C1 [Compound 60, 2,8-dimethyl-5-(3-(6-methylpyridin-3-yl)phenyl)-2,3,4,5-tetrahydro-1H-pyrido[4,3-b]indole] | -2 | 24 | 102 |  |
| Cc1ccc2c(c1)c1c(n2-c2ccc3nc(C)ccc3c2)CCN(C)C1 [Compound No. 157, 2,8-dimethyl-5-(2-methyl-quinolin-6-yl)-2,3,4,5-tetrahydro-1H-pyrido[4,3-b]indole] | 7 |  | 88 | -6 |
| Cc1ccc2c(c1)c1c(n2-c2ccc(-c3c(C)noc3C)cn2)CCN(C)C1 [Compound No. 137, 4-(6-(2,8-dimethyl-3,4-dihydro-1H-pyrido[4,3-b]indol-5(2H)-yl)pyridin-3-yl)-3,5-dimethylisoxazole] | 17 | 6 | 62 |  |
| Cc1ccc2c(c1)c1c(n2-c2cscc2-c2ccc(F)nc2)CCN(C)C1 [Compound 35] | 78 | 17 | 82 |  |
| Cc1ccc2c(c1)c1c(n2-c2cscc2C(=O)N(C)C)CCN(C)C1 [Compound No. 152] | 6 |  | 31 | 4 |
| Cc1cc(C)c2c(c1)c1c(n2-c2cccc3ncccc23)CCN(C)C1 [Compound 47] | -1 | 19 | 1 |  |
| CNC(=O)c1ccc(-c2ccccc2-n2c3c(c4cc(C)ccc42)CN(C)CC3)cn1 [Compound No. 71, 5-(2-(2,8-dimethyl-3,4-dihydro-1H-pyrido[4,3-b]indol-5(2H)-yl)phenyl)-N-methylpicolinamide] | 65 | 10 | 1 |  |
| Cc1ccc2c(c1)c1c(n2-c2ccc(-c3ccc(F)cc3)cn2)CCN(C)C1 [Compound No. 140, 5-(5-(4-fluorophenyl)pyridin-2-yl)-2,8-dimethyl-2,3,4,5-tetrahydro-1H-pyrido[4,3-b]indole] | 31 | -4 | 104 |  |
| Cc1ccc2c(c1)c1c(n2-c2ccc(-c3ccncc3)cn2)CCN(C)C1 [Compound No. 132, 5-(3,4′-bipyridin-6-yl)-2,8-dimethyl-2,3,4,5-tetrahydro-1H-pyrido[4,3-b]indole] | 11 | 18 | 83 |  |
| Cc1ccc2c(c1)c1c(n2-c2cccc(-c3sccc3C)c2)CCN(C)C1 [Compound 43, 2,8-dimethyl-5-(3-(3-methylthiophen-2-yl)phenyl)-2,3,4,5-tetrahydro-1H-pyrido[4,3-b]indole] | 13 | 26 | 102 |  |
| Cc1ccc2c(c1)c1c(n2-c2ccc(-c3ccnn3C)cn2)CCN(C)C1 [Compound No. 146, 2,8-dimethyl-5-(5-(1-methyl-1H-pyrazol-5-yl)pyridin-2-yl)-2,3,4,5-tetrahydro-1H-pyrido[4,3-b]indole] | 33 | 5 | 57 |  |
| Cc1ccc2c(c1)c1c(n2-c2cccc(-c3ccc(C)s3)c2)CCN(C)C1 [Compound No. 64, 2,8-dimethyl-5-(3-(5-methylthiophen-2-yl)phenyl)-2,3,4,5-tetrahydro-1H-pyrido[4,3-b]indole] | -8 | 24 | 102 |  |
| Cc1ccc2c(c1)c1c(n2-c2cccc(-c3ccc(O)nc3)c2)CCN(C)C1 [Compound 52, 5-(3-(2,8-dimethyl-3,4-dihydro-1H-pyrido[4,3-b]indol-5(2H)-yl)phenyl)pyridin-2-ol] | -1 | 21 | 76 |  |
| Cc1ccc2c(c1)c1c(n2-c2cccc3ccncc23)CCN(C)C1 [Compound 58, 5-(isoquinolin-8-yl)-2,8-dimethyl-2,3,4,5-tetrahydro-1H-pyrido[4,3-b]indole] | 3 | 11 | 70 |  |
| CC(=O)Nc1ccc(-c2cccc(-n3c4c(c5cc(C)ccc53)CN(C)CC4)c2)cn1 [Compound 45, N-(5-(3-(2,8-dimethyl-3,4-dihydro-1H-pyrido[4,3-b]indol-5(2H)-yl)phenyl)pyridin-2-yl)acetamide] | 13 | 20 | 71 |  |
| Cc1ccc2c(c1)c1c(n2-c2ccccc2-c2cnc(N(C)C)nc2)CCN(C)C1 [Compound 31] | 51 | 12 | 27 |  |
| Cc1ccc2c(c1)c1c(n2-c2ccc(-c3ccc(F)nc3)cn2)CCN(C)C1 [Compound No. 142, 5-(6′-fluoro-3,3′-bipyridin-6-yl)-2,8-dimethyl-2,3,4,5-tetrahydro-1H-pyrido[4,3-b]indole] | 46 | 13 | 103 |  |
| Cc1ccc2c(c1)c1c(n2-c2cccc(-c3cnc(N(C)C)nc3)c2)CCN(C)C1 [Compound 42, 5-(3-(2,8-dimethyl-3,4-dihydro-1H-pyrido[4,3-b]indol-5(2H)-yl)phenyl)-N,N-dimethylpyrimidin-2-amine] | 9 | 17 | 62 |  |
| Cc1cc(C)c2c(c1)c1c(n2-c2ccc3ncccc3c2)CCN(C)C1 [Compound 48] | -6 | 41 | 13 |  |
| Cc1ccc2c(c1)c1c(n2-c2cccc(-c3ccnn3C)c2)CCN(C)C1 [Compound No. 66, 2,8-dimethyl-5-(3-(1-methyl-1H-pyrazol-5-yl)phenyl)-2,3,4,5-tetrahydro-1H-pyrido[4,3-b]indole] | 1 | 24 | 90 |  |
